Laboratory results published in patent publication US20100284925A1, “Small Molecule Intervention for Obesity” (priority 2006, published 2010).

Assay: Body weight, food intake, serum parameters and adiposity in leptin-deficient ob/ob mice
Type: in vivo
Procedure: FIG. 4. Effects of prieurianin on blood insulin, glucose and NEFA levels. Normal and ob/ob mice were treated with 5 mg/kg of prieurianin and serum samples were then collected for (FIG. 4A) insulin; (FIG. 4B) glucose; and (FIG. 4C) non-esterified fatty acid (NEFA) profiling. Results are means of three animals per group for each treatment. Blue column, normal C57BL/6J; and red column, leptin-deficient ob/ob mice.
FIG. 5. Effects of prieurianin on adiposity in ob/ob mice. The leptin-deficient ob/ob mice were treated with 5 mg/kg of prieurianin and subcutaneous and visceral adipose tissues were excised and weighed. Results are means of three to five animals per group as indicated (n).
Prieurianin was administered intraperitoneally to 12-14 week-old normal C57BL/6J mice and the genetically leptin-deficient ob/ob mice (2 or 5 mg/kg) twice a week for two weeks. Controls received equivolume injections of drug vehicle. Body weight and food intake were measured every three days, and blood samples were collected at the end of the experiment.
Obesity contributes to hypertension, high serum cholesterol, low HDL cholesterol, and hyperglycemia, thus potentially leading to higher risk of cardiovascular disease. Abdominal obesity especially correlates with metabolic risk factors. The leptin-deficient ob/ob mice are hyperlipidemic, and hyperglycemic. To test whether prieurianin altered the metabolic or endocrinological parameters in addition to appetite, the serum lipid profile, insulin and glucose levels were measured.
To further examine the effects of prieurianin on the adiposity of the normal C57BL/6J and the ob/ob mice, we measured their visceral and subcutaneous body fat.

C=C1[C@@H]([C@@]2(C)[C@@H](OC(C)=O)CC(=O)O[C@](C)(COC(C)=O)[C@@H]2C(=O)OC)[C@@H](OC=O)[C@H](OC(=O)[C@H](O)[C@H](C)CC)[C@@]2(C)[C@H](c3ccoc3)CC(=O)[C@]12O [prieurianin]
serum PLTP activity: decrease in serum PLTP activity
NEFA levels (5 mg/kg): only a modest decrease in NEFA levels
hyperglycemia (glucose level) (5 mg/kg): reversed to levels comparable to those of normal controls
insulin levels (5 mg/kg): reduce by approximately three to four-fold
subcutaneous and visceral adipose tissues (5 mg/kg): significantly reduced both the subcutaneous and visceral adipose tissues
decrease in food intake (5 mg/kg group, relative to untreated or vehicle treated controls): ≤ 50%
reduction of total body fat (5 mg/kg, vs untreated and vehicle-treated controls): greater than 50%
reduction in total body weight (2 or 5 mg/kg i.p. twice a week, after two weeks): up to 10%
total cholesterol level (serum): significantly lower
triglyceride levels (serum): no significant changes
HDL levels (vs untreated and vehicle-treated): approximately two-fold lower
